Holding throughout (assay type): cell-based
Test [1] deals with T1, TLR7 (Homo sapiens, UniProt Q9NYK1).
T1 sequence (Q9NYK1 27-1049): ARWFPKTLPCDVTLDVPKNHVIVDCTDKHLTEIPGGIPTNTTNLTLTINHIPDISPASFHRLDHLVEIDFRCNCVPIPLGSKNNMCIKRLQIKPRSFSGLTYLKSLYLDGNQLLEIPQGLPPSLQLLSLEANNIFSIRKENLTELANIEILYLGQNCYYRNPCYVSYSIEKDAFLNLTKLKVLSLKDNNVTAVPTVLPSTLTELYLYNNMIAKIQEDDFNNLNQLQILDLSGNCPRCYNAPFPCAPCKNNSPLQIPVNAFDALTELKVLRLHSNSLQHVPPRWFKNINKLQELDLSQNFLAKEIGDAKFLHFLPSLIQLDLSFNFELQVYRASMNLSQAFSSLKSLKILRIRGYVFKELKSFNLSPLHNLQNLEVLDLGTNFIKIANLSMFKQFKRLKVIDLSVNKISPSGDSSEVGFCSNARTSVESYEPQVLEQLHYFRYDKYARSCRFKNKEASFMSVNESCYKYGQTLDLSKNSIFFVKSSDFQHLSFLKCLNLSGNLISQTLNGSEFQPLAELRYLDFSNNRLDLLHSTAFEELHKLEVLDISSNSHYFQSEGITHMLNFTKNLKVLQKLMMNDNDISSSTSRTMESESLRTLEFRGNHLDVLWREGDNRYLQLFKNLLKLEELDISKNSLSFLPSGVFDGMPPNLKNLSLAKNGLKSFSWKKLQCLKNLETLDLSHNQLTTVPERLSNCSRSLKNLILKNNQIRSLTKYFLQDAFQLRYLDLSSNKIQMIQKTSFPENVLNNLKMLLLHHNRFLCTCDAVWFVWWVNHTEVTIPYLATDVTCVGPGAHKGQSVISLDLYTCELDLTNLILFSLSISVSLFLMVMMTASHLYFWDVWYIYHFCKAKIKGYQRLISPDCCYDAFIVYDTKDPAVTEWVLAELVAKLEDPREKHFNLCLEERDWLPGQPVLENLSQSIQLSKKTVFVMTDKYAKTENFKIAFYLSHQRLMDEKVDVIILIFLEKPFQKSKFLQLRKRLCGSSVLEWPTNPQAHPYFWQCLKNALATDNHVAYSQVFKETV
As to the kind of experiment: PBMC assay for TLR7 (IFNα in supernatants by ELISA). More on the design: Peripheral blood mononuclear cells (PBMCs) from human blood were isolated; endogenous in cells; host or cells: human PBMCs. The note with it: human PBMCs incubated with compound overnight, MC50 = concentration at which 50% of maximum induction is seen. Here is the method: (§1) Peripheral blood mononuclear cells (PBMCs) from human blood were isolated using BD Vacutainer Cell Preparation Tubes with sodium citrate. Cells were incubated with compound overnight. TLR8 activity was assayed by measuring the amount of TNFα in supernatants by ELISA. TLR7 activity was assayed by measuring the amount of IFNα in supernatants by ELISA (R&D Systems). […] The results of this assay are shown below in Tables 2 and 3.
(§2) MC50 numbers are represented as factors of ten, for example, + indicates an MC50 value of X 10^4, or a value in the tens of thousands of nanomolar (nM range); ++ indicates an MC50 value of X 10^3, or a value in the thousands; +++ indicates an MC50 value of X 10^2, or a value in the hundreds; and ++++ indicates an MC50 value of X 10^1 or 10^0, or a value in the tens or ones.
A general note: In an ELISA, binding on a coated surface is turned into a signal by an enzyme label.

Test [2] concerns the target T2, TLR8 (Homo sapiens, UniProt Q9NR97).
T2 sequence (Q9NR97 27-1041): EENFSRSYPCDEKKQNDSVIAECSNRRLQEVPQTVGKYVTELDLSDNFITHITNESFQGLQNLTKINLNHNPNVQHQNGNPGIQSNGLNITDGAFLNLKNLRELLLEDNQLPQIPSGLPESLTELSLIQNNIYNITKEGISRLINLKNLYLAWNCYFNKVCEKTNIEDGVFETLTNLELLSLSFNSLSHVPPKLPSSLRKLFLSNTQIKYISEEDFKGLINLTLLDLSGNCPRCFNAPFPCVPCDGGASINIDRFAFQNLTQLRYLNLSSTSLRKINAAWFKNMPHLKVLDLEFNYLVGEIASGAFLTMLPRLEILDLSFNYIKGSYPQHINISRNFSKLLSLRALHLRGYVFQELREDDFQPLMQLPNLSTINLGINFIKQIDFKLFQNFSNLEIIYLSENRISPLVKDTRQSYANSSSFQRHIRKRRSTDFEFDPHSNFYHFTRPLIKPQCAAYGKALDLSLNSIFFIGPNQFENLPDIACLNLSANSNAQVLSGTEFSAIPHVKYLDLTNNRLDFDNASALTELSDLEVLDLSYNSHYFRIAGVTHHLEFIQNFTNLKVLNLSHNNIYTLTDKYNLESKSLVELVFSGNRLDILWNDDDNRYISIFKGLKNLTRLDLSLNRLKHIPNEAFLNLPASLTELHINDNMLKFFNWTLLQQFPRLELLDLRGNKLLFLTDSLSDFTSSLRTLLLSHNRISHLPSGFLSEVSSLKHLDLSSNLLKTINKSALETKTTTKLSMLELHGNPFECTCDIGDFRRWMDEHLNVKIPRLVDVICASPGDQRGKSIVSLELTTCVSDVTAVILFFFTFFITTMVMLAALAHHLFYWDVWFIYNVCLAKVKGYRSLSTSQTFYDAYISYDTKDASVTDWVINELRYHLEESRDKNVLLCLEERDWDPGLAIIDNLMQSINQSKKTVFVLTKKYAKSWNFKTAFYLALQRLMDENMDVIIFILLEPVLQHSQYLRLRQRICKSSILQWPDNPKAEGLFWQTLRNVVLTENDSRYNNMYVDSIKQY
The test can be described thus: PBMC assay for TLR8 (TNFα in supernatants by ELISA). More on the design: Peripheral blood mononuclear cells (PBMCs) from human blood were isolated; endogenous in cells; host or cells: human PBMCs. Particulars: human PBMCs incubated with compound overnight, MC50 = concentration at which 50% of maximum induction is seen. On the procedure:
as §1, §2

Test [3] concerns the target T2, TLR8. As to the kind of experiment: MC50 values for TLR8 activity (test not specified; procedures of Gorden et al. and Zhu et al.). An excerpt:
(§3) Activity of the compounds can be assessed according to procedures described in, e.g., Gorden et al., Journal of Immunology 177, pp. 8164-8170 (2006) and Zhu et al., Molecular Immunology, vol. 45 (11), pp. 3238-3242 (2008).
MC50 values for TLR8 activity are, for example, as shown below: […]

Test [4] addresses T1, TLR7. As to the kind of experiment: MC50 values for TLR7 activity (test not specified; procedures of Gorden et al. and Zhu et al.).
Excerpt: as §3
MC50 values for TLR7 activity are, for example, as shown below: […]

SMILES strings stand for the structures.

Regarding `CCCN(CCC)C(=O)C1=Cc2ccc(-c3cncc(CO)c3)cc2N=C(N)C1` [Compound 183, (1E,4E)-2-amino-8-(5-(hydroxymethyl)pyridin-3-yl)-N,N-dipropyl-3H-benzo[b]azepine-4-carboxamide], the figures for the EC50 at TLR7 [1], on TLR8 [2] and on TLR8 [3] were 1000 to 10000 nM, 1 to 100 nM and 8 nM, respectively.
Consider `CCCN(CCC)C(=O)C1=Cc2ccc(-c3ccc(OCC(=O)OCC)cc3)cc2N=C(N)C1` [Compound 197, Ethyl 2-(4-((1E,4E)-2-amino-4-(dipropylcarbamoyl)-3H-benzo[b]azepin-8-yl)phenoxy)acetate], for which the half-maximal effective concentration (EC50) (usually the concentration needed to bring the measured effect to its halfway point) on TLR7 [1] lay within 1000 to 10000 nM; at TLR8 [2], 100 to 1000 nM.
Consider `CCOC(=O)C1=Cc2ccc(-c3cncc(CO)c3)cc2N=C(N)C1` [Compound 199, (1E,4E)-ethyl 2-amino-8-(5-(hydroxymethyl)pyridin-3-yl)-3H-benzo[b]azepine-4-carboxylate], for which the figures for the EC50 at TLR7 [1] and on TLR8 [2] were 1000 to 10000 nM and 1 to 100 nM, respectively.
On the same counts, the results for `CCCN(CCCO)C(=O)C1=Cc2ccc(-c3ccc(CC(=O)OC)cc3)cc2N=C(N)C1` [Compound 213, Methyl 2-(4-((1E,4E)-2-amino-4-((3-hydroxypropyl)(propyl)carbamoyl)-3H-benzo[b]azepin-8-yl)phenyl)acetate] are 1000 to 10000 nM and 100 to 1000 nM.
For `CCCN(CCCO)C(=O)C1=Cc2ccc(-c3ccc(CC(=O)OCC)cc3)cc2N=C(N)C1` [Compound 214, Ethyl 2-(4-((1E,4E)-2-amino-4-((3-hydroxypropyl)(propyl)carbamoyl)-3H-benzo[b]azepin-8-yl)phenyl)acetate], the EC50 was 1000 to 10000 nM at TLR7 [1], 1 to 100 nM on TLR8 [2] and 54 nM on TLR8 [3].
Regarding `CCCN(CCCO)C(=O)C1=Cc2ccc(-c3ccc(CC(=O)OC(C)C)cc3)cc2N=C(N)C1` [Compound 215, Isopropyl 2-(4-((1E,4E)-2-amino-4-((3-hydroxypropyl)(propyl)carbamoyl)-3H-benzo[b]azepin-8-yl)phenyl)acetate], the EC50 is 10000 to 100000 nM at TLR7 [1] and 1 to 100 nM on TLR8 [2].
For `CCCN(CCCO)C(=O)C1=Cc2ccc(-c3ccc(CC(=O)OCC(C)C)cc3)cc2N=C(N)C1` [Compound 216, Isobutyl 2-(4-((1E,4E)-2-amino-4-((3-hydroxypropyl)(propyl)carbamoyl)-3H-benzo[b]azepin-8-yl)phenyl)acetate] the same measures were 10000 to 100000 nM and 1 to 100 nM.
On the same counts, the results for `CCCN(CCCO)C(=O)C1=Cc2ccc(-c3ccc(CCC(=O)OCC(C)C)cc3)cc2N=C(N)C1` [Compound 219, Isobutyl 3-(4-((1E,4E)-2-amino-4-((3-hydroxypropyl)(propyl)carbamoyl)-3H-benzo[b]azepin-8-yl)phenyl)propanoate] are 1000 to 10000 nM and 1000 to 10000 nM.
Turning to `CCCN(CCCO)C(=O)C1=Cc2ccc(-c3ccc4c(c3)C(=O)OC4)cc2N=C(N)C1` [Compound 222, (1E,4E)-2-Amino-N-(3-hydroxypropyl)-8-((3-oxo-1,3-dihydroisobenzofuran-5-yl)-N-propyl-3H-benzo[b]azepine-4-carboxamide], the EC50 at TLR7 [1] was 100 to 1000 nM; at TLR8 [2] it was 1 to 100 nM; on TLR8 [3], 33 nM; on TLR7 [4] it was 358 nM.
Turning to `CCCN(CCC)C(=O)C1=Cc2ccc(-c3ccc(C4CCOC4=O)cc3)cc2N=C(N)C1` (stereo not drawn) [Compound 223, (1E,4E)-2-Amino-8-(4-(2-oxotetrahydrofuran-3-yl)phenyl)-N,N-dipropyl-3H-benzo[b]azepine-4-carboxamide], the EC50 is 1000 to 10000 nM at TLR7 [1], 100 to 1000 nM at TLR8 [2] and 195 nM on TLR8 [3].
On the same counts, the results for `CCCN(CCC)C(=O)C1=Cc2ccc(-c3ccc(C(O)CO)cc3)cc2N=C(N)C1` (stereo not drawn) [Compound 224, (1E,4E)-2-amino-8-(4-(1,2-dihydroxyethyl)phenyl)-N,N-dipropyl-3H-benzo[b]azepine-4-carboxamide] are 10000 to 100000 nM, 100 to 1000 nM and 363 nM.
Take `CCCN(CCC)C(=O)C1=Cc2ccc(-c3ccc(C4COC(=O)O4)cc3)cc2N=C(N)C1` (stereo not drawn) [Compound 225, (1E,4E)-2-amino-8-(4-(2-oxo-1,3-dioxolan-4-yl)phenyl)-N,N-dipropyl-3H-benzo[b]azepine-4-carboxamide]: the EC50 is 10000 to 100000 nM at TLR7 [1] and 100 to 1000 nM on TLR8 [2].
